Assay results reported in patent US20130011392A1, “METHOD FOR ASSESSING THE ABILITY OF A PATIENT TO RESPOND TO OR BE SAFELY TREATED BY A NUCLEOSIDE ANALOG BASED-CHEMOTHERAPY” (Assistance Publique Hopitaux De Marseille, priority 2009, published 2013).
Like-named read-outs stand apart in the source and are kept apart here.

Key:
[1] = tested on: leucocytes; assay: Animal haematological toxicity monitoring (leucocytes count); type: in vivo, swiss mice; conditions: for Mean leucocytes count: day 5 after gemcitabine 100 mg/kg
Procedure: (§1) Parent-drug and difluorodeoxyuridine (dFdU) metabolite concentrations in plasma were assayed by UV-HPLC, as described in the literature (10). Elimination rate of gemcitabine was evaluated through a compartmental analysis and a stochastic model, using a home-built algorithm (11). Mean metabolization ratio for gemcitabine was calculated as follows: dFdU (μg/ml)/gemcitabine (μg/ml)×100. Carcass weights were monitored. Drug-induced leucopenia was the marker for gemcitabine-related toxicity. Leucocytes count was performed on day-0, then day-2, day-5 and day-8 post injection using Flow Cytometry analysis.

[2] = tested on: adult cancer patients; assay: Treatment-related toxicities in adult cancer patients (NCI-CTC); type: in vivo, human
Text: A total of 150 cancer patients (130 adults—Table 1 and 20 children—Table 2) hospitalized at La Timone University Hospital of Marseille, France, from January 2007 to December 2008, were enrolled in this retrospective, observational study. Written informed consent and local ethic committee approval were obtained prior to performing CDA testing. Patients were divided into 3 subsets: […] These patients were mostly treated for pancreatic (n=40 patients) or gynaecological (n=7 patients) cancers. Other tumour types included liver, lung, vesical, or other localizations. In patients with digestive cancers, gemcitabine was administered as a fixed-dose rate infusion, whereas other patients received a standard rapid infusion. […] Remaining patients were given various drug combinations including capecitabine, fluorouracil (5-FU), herceptin, navelbine, sorafenib, axatinib, and erlotinib. Gemcitabine was given either as a rapid infusion or at fixed-dose rate infusion, depending on tumor location, as described previously. Twenty patients were treated for vesical-urothelial cancers. Other tumour types were pancreatic (n=12 patients), breast (n=12 patients), gynaecological (n=12 patients), and other, including lung, head and neck, liver, and other localisations. Toxicities were graded following the standard National Cancer Institute-Common Toxicity Criteria guidelines. Toxicities of grade ≧3 were regarded as “severe”.

[3] = tested on: pancreatic cancers and other digestive localizations; assay: Treatment efficacy in digestive cancer patients by CT imaging / CA19-9 at 3 months; type: in vivo, human; conditions: gemcitabine alone or combined
Procedure: A total of 40 adult patients (21 men/19 women; 61±11 years old) with mostly pancreatic cancers (n=36 patients) and other digestive localizations (n=4 patients) were included in this retrospective study. All patients had been treated with gemcitabine alone (n=23 patients), associated with oxaliplatin (n=7 patients), erlotinib (n=2 patients), capecitabine (n=1 patient) or other drugs, including molecules used in target therapies (n=7 patients). Mean gemcitabine dose was 980 mg/m^2 (minimum: 500 mg/m^2, maximum: 1250 mg/m^2). CDA activity was measured spectrophotometrically from serum samples. Search for three genetic mutations (79A>C, 435T>C and 208G>A) was additionally performed. The cut-off associated with CDA extensiveness (extensive CDA activity) was set at 6 U/mg (e.g., >25% of the mean value of the population). Treatment efficacy was evaluated 3 month after beginning of the chemotherapy by CT imaging, with or without additional monitoring of the CA19-9 tumor marker.

[4] = Animal pharmacokinetics of gemcitabine; type: in vivo, swiss mice; conditions: for clearance: male, Swiss, mouse, plasma, intraperitoneal; for Gemcitabine exposure AUC0-60: gemcitabine 100 mg/kg intraperitoneally; for Increase in gemcitabine exposure in animals with inhibited CDA: inhibited CDA (THU) vs normal CDA
Procedure: as §1

[5] = tested on: patients; conditions: cited from earlier work
[6] = tested on: paediatric cancer patients; assay: Treatment-related toxicities in children; type: in vivo, human
Text: Subset 3: 20 patients (12 men/8 women; mean and SD age, 12±7 years) from the Pediatric Oncology Unit of La Timone University Hospital that had been previously treated with gemcitabine-based protocols had their CDA status phenotyped as well (Table 2). Most of these young patients were heavily pre-treated, and gemcitabine was mostly given as part of a Gemox protocol (n=14 patients), or associated with paclitaxel (n=3 patients) or with various other anticancer drugs (e.g.
carboplatine, liposomal doxorubicin) or dexamethasone. In children, mean gemcitabine dose was 1028±190 mg/m^2 (minimum, 600 mg/m^2 —maximum, 1400 mg/m^2). Tumour types were extremely heterogeneous and included osteosarcoma, medulloblastoma, Ewing's sarcoma, and Hodgkin's syndrome.
Toxicities were graded following the standard National Cancer Institute-Common Toxicity Criteria guidelines. Toxicities of grade ≧3 were regarded as “severe”. A toxic event was considered “early” when occurring […] the 1st or the 2nd day of the gemcitabine course, and was considered “late” when occurring after those days.

[7] = extensive subset (CDA>6 U/mg, n=8)

Nc1ccn([C@@H]2O[C@H](CO)[C@@H](O)C2(F)F)c(=O)n1 [gemcitabine, 2′-deoxy-2′,2′-difluorocytidine]
Outcome by day 8 ([1]; CDA-deficient mice (THU)): all animals were dead
Decrease of leucocytes count ([1]; day 5, CDA-deficient mice (THU)): 65%
Decrease of leucocytes count as compared with untreated animals ([1]; day 5, mice with normal CDA activity): 23%
Mean leucocytes count ([1]; CDA-deficient mice (THU)): 1.5 G/L
Mean leucocytes count ([1]; mice with normal CDA activity): 3.2 G/L
Outcome by day 8 ([1]; mice with normal CDA activity): all animals spontaneously recovered from their toxicities
Patients with severe side-effects ([2]; 66 extra-patients, gemcitabine in combination with another anticancer drug): 14%
Patients with early severe toxicities ([2]; 130 adult patients, gemcitabine-containing protocol, after first or second administration): 12%
Patients with early severe toxicities ([2]; Subset 1, gemcitabine alone, n=64): 11%
Anemia grade 3/4, Early ([2]; Subset 1, monotherapy, n=64): 1 (1.6%) n (%)
Anemia grade 3/4, Late ([2]; Subset 1, monotherapy, n=64): 1 (1.6%) n (%)
Asthenia grade 3/4, Early ([2]; Subset 1, monotherapy, n=64): 1 (1.6%) n (%)
Asthenia grade 3/4, Late ([2]; Subset 1, monotherapy, n=64): 1 (1.6%) n (%)
Diarrhea grade 3/4, Early ([2]; Subset 1, monotherapy, n=64): 0 (0%) n (%)
Diarrhea grade 3/4, Late ([2]; Subset 1, monotherapy, n=64): 1 (1.6%) n (%)
Leucopenia grade 3/4, Early ([2]; Subset 1, monotherapy, n=64): 7 (11%) n (%)
Leucopenia grade 3/4, Late ([2]; Subset 1, monotherapy, n=64): 10 (16%) n (%)
Neutropenia grade 3/4, Early ([2]; Subset 1, monotherapy, n=64): 6 (9.6%) n (%)
Neutropenia grade 3/4, Late ([2]; Subset 1, monotherapy, n=64): 8 (12.8%) n (%)
Sepsis grade 3/4, Early ([2]; Subset 1, monotherapy, n=64): 3 (4.8%) n (%)
Sepsis grade 3/4, Late ([2]; Subset 1, monotherapy, n=64): 0 (0%) n (%)
Thrombopenia grade 3/4, Early ([2]; Subset 1, monotherapy, n=64): 2 (3.2%) n (%)
Thrombopenia grade 3/4, Late ([2]; Subset 1, monotherapy, n=64): 2 (3.2%) n (%)
Non-responders with progressive disease [3, 7]: 75%
Patients with controlled disease [3, 7]: 25%
Patients with controlled disease ([3]; non-extensive subset (CDA<6 U/mg, n=32)): 84.5%
clearance [4]: 3.25 mL/min/kg
clearance ([4]; 100 mg/kg, mice, normal CDA): 12.6 mL/min/kg
Decrease of gemcitabine clearance ([4]; mice with altered CDA function (THU) vs normal): 74%
Gemcitabine exposure AUC0-60 ([4]; mice, inhibited CDA (THU pre-treatment)): 142 µg/mL/min
Gemcitabine exposure AUC0-60 ([4]; mice, normal CDA): 54 µg/mL/min
Increase in gemcitabine exposure in animals with inhibited CDA ([4]; mice): ~3 fold
Increase in gemcitabine exposure in animals with inhibited CDA ([4]; mice, listed as Gemcitabine): 2.6 fold
Severe toxicities reported ([5]; gemcitabine given as a combination (polychemotherapy)): 15-30%
Severe toxicities reported ([5]; gemcitabine monochemotherapy): 5-10%
Late/cumulative grade-3 anemia ([6]; Subset 3, 20 children): 20%
Late/cumulative grade-3 neutropenia ([6]; Subset 3, 20 children): 20%
Late/cumulative grade-3 thrombopenia ([6]; Subset 3, 20 children): 10%
Early severe toxicities ([6]; Subset 3, 20 children, gemcitabine-based protocols): No early severe toxicities were observed
Tolerance ([6]; children): well tolerated
